Earlier results on one compound are cited in patent EP1558263B1, “PROLONGED RELEASE PHARMACEUTICAL COMPOSITION” (Akzo Nobel N.V., priority 2002, dated 2004).

The test system of this data set is Mannheimia haemolytica. To be noted: pathogen of respiratory tract infections in cattle.

≈ marks a conversion by molar mass, not a printed value.

Take `CO/N=C(\C(=O)N[C@@H]1C(=O)N2C(C(=O)[O-])=C(C[n+]3cccc4c3CCCC4)CS[C@H]12)c1csc(N)n1` [Cefquinome, cefquinome]: the MIC90 is given as 0.25 µg/mL (≈ 0.473 µM).
